The record followed here is paper PMC12348844, “Anti-Trypanosoma cruzi Potential of New Pyrazole-Imidazoline Derivatives” (Molecules, 2025).

Series [1] relates to T. cruzi Dm28c-Luc trypomastigotes. Put plainly: Anti-T. cruzi in vitro assay, trypomastigotes (luminescence). Format: cell-based. The settings on record: Trypanosoma cruzi, 24 h, mean ± SD. Here is the method: (§1) The genetically modified Trypanosoma cruzi, clone Dm28c (TcI), expressing luciferase (Dm28c-Luc), was kindly provided by Dr. Cristina Henriques from Oswaldo Cruz Institute—Fiocruz. The parasites were maintained using Vero cell cultures in RPMI 1640 medium enriched with 10% FBS. At 4 days post-infection (dpi), the trypomastigotes released into the culture supernatant were harvested, subjected to centrifugation at 800× g for 20 min at 4 °C, and quantified with a Neubauer chamber. The isolated trypomastigotes were subsequently used for phenotypic screening, drug efficacy assessments employing a 3D cardiac model, washout experiments to evaluate reversibility, drug combination studies, and enzymatic assays.
Drug susceptibility assays were performed on T. cruzi Dm28c-Luc, a genetically engineered parasite expressing luciferase. The drug screening used both trypomastigotes and intracellular amastigotes. Trypomastigotes (1 × 10^6 parasites/well) were added to white 96-well plates with clear bottoms. […] The luminescence was measured using a Glomax Multi-Detection plate reader (Promega Corporation, Madison, WI, USA).

The subject of series [2] is T. cruzi Dm28c-Luc intracellular amastigotes. Put plainly: Anti-T. cruzi in vitro assay, intracellular amastigotes in Vero cells (luminescence). In kind it is cell-based, Trypanosoma cruzi. Particulars: for SI (selectivity index = CC50/IC50): CC50 Vero cells / IC50 intracellular amastigotes. The procedure:
as §1
To evaluate the effect of pyrazole-imidazoline derivatives against intracellular amastigotes, Vero cells (1.5 × 10^4 cells/well) were cultured in a white 96-well plate with a clear bottom and subsequently infected with T. cruzi Dm28c-Luc at a 10:1 parasite-to-host cell ratio for 24 h. […] Parasite viability was measured by luminescence following the addition of luciferin (300 µg/mL). Background measurements (non-infected cultures incubated with luciferin, as well as luciferin-only controls) were performed to ensure the signal specifically originates from viable parasites. The IC50 and IC90 values, denoting the concentrations that achieve 50% and 90% reductions in viable parasites, respectively, were calculated using GraphPad Prism 8.2.1 software. Additionally, the selectivity index (SI) was calculated as the cytotoxic concentration (CC50) ratio in mammalian cells to the IC50 against T. cruzi, providing insight into the therapeutic window. Potency against intracellular amastigotes was evaluated using the formula 6—Log10 (IC50).

The nature of series [3]: Cytotoxicity assay, Vero cells (CellTiter-Glo). Format: cell-based. The settings on record: African green monkey, mean ± SD. The procedure:
Vero cells, obtained from the Rio de Janeiro Cell Bank (BCRT code 0245) and maintained through weekly subculturing with a dissociation solution containing 0.25% trypsin-EDTA, initiated once the monolayer reached an 80–100% confluence. Following harvesting, the cells were washed and resuspended in RPMI 1640 medium enriched with 10% fetal bovine serum (FBS). Cultures were maintained at 37 °C in a 5% CO2-humidified incubator. These cultures were used for drug screening assays and for producing culture-derived trypomastigotes of T. cruzi.
Cytotoxicity assays were performed using Vero cells, which were seeded at a density of 1.5 × 10^4 cells per well in white 96-well plates with clear bottoms. Following a 24 h adhesion period, the cultures were incubated at 37 °C in a 5% CO2 atmosphere. […] After 72 h of incubation, cell viability was assessed by adding CellTiter-Glo reagent (Promega Corporation, Madison, WI, USA), which induces cell lysis and reacts with the released ATP to produce luminescence. The resulting luminescence was measured using a Glomax Multi-Detection plate reader (Promega Corporation, Madison, WI, USA). The half-maximal inhibitory concentration (CC50) for cell viability was then calculated using GraphPad Prism software version 8.2.1.

Series [4] relates to T. cruzi cysteine protease. Put plainly: Cysteine protease activity in trypomastigote protein extract (Z-Phe-Arg-AMC). Format: biochemical, Trypanosoma cruzi. Particulars: 90 min, 37 °C, 33.3, 100 and 300 µM tested. Here is the method: Total proteins from T. cruzi Dm28c-Luc were extracted using a lysis buffer [100 mM Tris-HCl pH 8.0, 150 mM NaCl, 10% glycerol, 0.5% Triton X-100]. The protein concentration was quantified using the Bradford assay, with bovine serum albumin (BSA) used to establish the standard curve. For the assessment of cysteine protease activity, 5 μg of the protein extract was incubated in an acetate buffer [10 mM sodium acetate, pH 5.0], supplemented with 1 mM dithiothreitol (DTT) in a final volume of 100 μL. The reaction used a fluorogenic peptide substrate, N-benzoyloxycarbonyl-L-phenylalanyl-L-arginine 7-amino-4-methylcoumarin (Z-FR-AMC), at a concentration of 60 μM. Incubation was conducted at 37 °C for 90 min, with relative fluorescence changes measured using a SpectraMax M2e spectrophotometer (Molecular Devices, Sunnyvale, CA, USA). Inhibition assays were performed using three concentrations (33.3, 100, and 300 µM) of the promising candidate and trans-epoxysuccinyl-L-leucylamido(4-guanidino)butane (E-64), each analyzed separately. A control was included using a low DMSO concentration (≤1%). Enzymatic activity was expressed in µmol/min/mg of protein, with residual activity presented as a percentage.

The mark [5] stands for this setting: Trypanosoma cruzi, Vero, 72 h, Dm28c-Luc in Vero cells, mean ± SD, read-out: Intracellular Amastigotes IC50.
Setting [6] is: Trypanosoma cruzi, Vero, intracellular amastigotes, 6 − Log10(IC50), read-out: pIC50 (potency) (converted).
Where [7] appears, read: Trypanosoma cruzi, 72 h, Dm28c-Luc in Vero cells, mean ± SD.

Molecules are shown by their SMILES. Read-outs that look alike come from different tables or passages of the source. Some results are limits rather than exact numbers.

For the compound `Nc1c(C2=NCCN2)cnn1-c1cccc(C(F)(F)F)c1` [1i, 5-amino-1-(3-trifluoromethylphenyl)-4-(4,5-dihydro-1H-imidazol-2-yl)-1H-pyrazole], the IC50 in series [1] was above 100 µM; in series [2] (setting [5]) it was 51.9 ± 3.6 µM; in series [2] (setting [6]), 63.1 µM. In addition, the IC90 in series [1] and in series [2] (setting [7]) was above 100 µM in each case. Moreover, the “SI (selectivity index = CC50/IC50)” value in series [2] is reported as above 9.6. The CC50 at 72 h in series [3] is above 500 µM.

Regarding `Cc1ccc(-n2ncc(C3=NCCN3)c2N)cc1` [1c, 5-amino-1-(4-methylphenyl)-4-(4,5-dihydro-1H-imidazol-2-yl)-1H-pyrazole], the IC50 in series [1], in series [2] (setting [5]) and in series [2] (setting [6]) was above 100 µM each time. Moreover, the IC90 in series [1] and in series [2] (setting [7]) was above 100 µM throughout. For the same compound, in series [3], the CC50 at 72 h is above 500 µM.

In the case of `Cc1ccc(-n2ncc(C3=NCCN3)c2N)cc1Cl` [1e, 5-amino-1-(3-chloro-4-methylphenyl)-4-(4,5-dihydro-1H-imidazol-2-yl)-1H-pyrazole], the IC50 in series [1] was 76.5 ± 10.3 µM; in series [2] (setting [5]), 68.9 ± 8.1 µM; in series [2] (setting [6]), 79.4 µM. Also, the IC90 in series [1] was above 100 µM; in series [2] (setting [7]), 96.6 ± 0.2 µM. In addition, the “SI (selectivity index = CC50/IC50)” value in series [2] is given as above 7.2. The CC50 at 72 h in series [3] is above 500 µM.

In the case of `Cc1cccc(-n2ncc(C3=NCCN3)c2N)c1` [1g, 5-amino-1-(3-methylphenyl)-4-(4,5-dihydro-1H-imidazol-2-yl)-1H-pyrazole], the figures for the IC50 in series [1], in series [2] (setting [5]) and in series [2] (setting [6]) were above 100 µM, 78.9 ± 2.2 µM and 79.4 µM, respectively. Also, the IC90 in series [1] and in series [2] (setting [7]) was above 100 µM each time. Besides, in series [2], the “SI (selectivity index = CC50/IC50)” value is above 6.3. In series [3], this compound gave a CC50 at 72 h above 500 µM.

Take `Nc1c(C2=NCCN2)cnn1-c1ccc(C(F)(F)F)cc1` [1j, 5-amino-1-(4-trifluoromethylphenyl)-4-(4,5-dihydro-1H-imidazol-2-yl)-1H-pyrazole]: the figures for the IC50 in series [1], in series [2] (setting [5]) and in series [2] (setting [6]) were above 100 µM, 88.1 ± 0.2 µM and 100 µM, respectively. Moreover, the IC90 in series [1] and in series [2] (setting [7]) was above 100 µM each time. The “SI (selectivity index = CC50/IC50)” value in series [2] was above 5.6. Moreover, the CC50 at 72 h in series [3] was above 500 µM.

As for `FC(F)(F)c1cc(-n2cc(C3=NCCN3)cn2)cc(C(F)(F)F)c1` [1m, 1-((3,5-ditrifluoromethyl)phenyl)-4-(4,5-dihydro-1H-imidazol-2-yl)-1H-pyrazole], the IC50 in series [1] was above 100 µM; in series [2] (setting [5]), 32.4 ± 5.9 µM; in series [2] (setting [6]), 31.6 µM. Besides, the IC90 in series [1] was above 100 µM; in series [2] (setting [7]) it was 80.7 ± 0.4 µM. In series [2], the “SI (selectivity index = CC50/IC50)” value came to 3.5. This compound also had a CC50 at 72 h in series [3] of 114 ± 11.9 µM.

Consider `Cc1cccc(-n2cc(C3=NCCN3)cn2)c1` [1h, 1-(3-methylphenyl)-4-(4,5-dihydro-1H-imidazol-2-yl)-1H-pyrazole], for which the IC50 was above 100 µM in series [1]; 26.2 ± 3.4 µM in series [2] (72 h, Dm28c-Luc in Vero cells, mean ± SD, read-out: Intracellular Amastigotes IC50); 26.1 ± 3.4 µM in series [2] (setting [5]); 25.1 µM in series [2] (setting [6]). Besides, the figures for the IC90 in series [1] and in series [2] (setting [7]) were above 100 µM and 89.7 ± 7.4 µM, respectively. Besides, in series [2], the “SI (selectivity index = CC50/IC50)” value is reported as above 19.1. Also, the 50% cytotoxic concentration (CC50) at 72 h in series [3] was above 500 µM.

For `Nc1c(C2=NCCN2)cnn1-c1cc(C(F)(F)F)cc(C(F)(F)F)c1` [1l, 5-amino-1-((3,5-ditrifluoromethyl)phenyl)-4-(4,5-dihydro-1H-imidazol-2-yl)-1H-pyrazole], the IC50 in series [1] is above 100 µM; in series [2] (setting [5]), 27.7 ± 2 µM; in series [2] (setting [6]) it was 31.6 µM. Moreover, the IC90 in series [1] is above 100 µM; in series [2] (setting [7]), 80.1 ± 11.4 µM. Moreover, in series [2], the “SI (selectivity index = CC50/IC50)” value came out at 16.7. Besides, in series [3], half-maximal cytotoxicity (CC50 at 72 h) was put at 464 ± 15.2 µM.

Take `Nc1c(C2=NCCN2)cnn1-c1cccc(F)c1` [1b, 5-amino-1-(3-fluorophenyl)-4-(4,5-dihydro-1H-imidazol-2-yl)-1H-pyrazole]: the IC50 in series [1], in series [2] (setting [5]) and in series [2] (setting [6]) was above 100 µM each time. Besides, the concentration for an effect of 90% (IC90) in series [1] and in series [2] (setting [7]) was above 100 µM in each case. The compound further registered a CC50 at 72 h in series [3] above 500 µM.

Turning to `CC(C)C[C@H](NC(=O)[C@H]1O[C@@H]1C(=O)O)C(=O)NCCCCN=C(N)N` (relative stereo) [E-64, trans-epoxysuccinyl-L-leucylamido(4-guanidino)butane, reference compound], in series [4], the “inhibition of cysteine protease activity” value was determined as 92.81%.

With `Cc1cc(Cl)ccc1-n1ncc(C2=NCCN2)c1N` [1f, 5-amino-1-(4-chloro-2-methylphenyl)-4-(4,5-dihydro-1H-imidazol-2-yl)-1H-pyrazole], the IC50 was above 100 µM in series [1], 76.1 ± 1.2 µM in series [2] (setting [5]) and 79.4 µM in series [2] (setting [6]). The IC90 in series [1] and in series [2] (setting [7]) was above 100 µM throughout. Also, in series [2], the “SI (selectivity index = CC50/IC50)” value is reported as above 6.5. Also, the CC50 at 72 h in series [3] is above 500 µM.

With `Cc1ccc(-n2cc(C3=NCCN3)cn2)cc1` [1d, 1-(4-methylphenyl)-4-(4,5-dihydro-1H-imidazol-2-yl)-1H-pyrazole], the values for the IC50 in series [1], in series [2] (setting [5]) and in series [2] (setting [6]) were above 100 µM, 33.9 ± 0.8 µM and 39.8 µM, respectively. For the same compound, the IC90 in series [1] and in series [2] (setting [7]) was above 100 µM in each case. Moreover, the “SI (selectivity index = CC50/IC50)” value in series [2] was above 14.7. The CC50 at 72 h in series [3] is above 500 µM.

Take `Nc1c(C2=NCCN2)cnn1-c1ccc(Cl)cc1Cl` [1a, 5-amino-1-(2,4-dichlorophenyl)-4-(4,5-dihydro-1H-imidazol-2-yl)-1H-pyrazole]: the IC50 in series [1] is above 100 µM; in series [2] (setting [5]) it was 40.8 ± 3 µM; in series [2] (setting [6]), 75.9 µM. The IC90 in series [1] and in series [2] (setting [7]) was above 100 µM in each case. In series [2], the “SI (selectivity index = CC50/IC50)” value is above 12.2. The same compound registered a CC50 at 72 h in series [3] above 500 µM.

In general, IC90 refers to the concentration needed for an effect of 90%. The term CC50 denotes the concentration that lowers cell viability or growth by half. Low values mean greater toxicity to the cells, high ones lower toxicity to the cells.
